What all share (assay): Fungal growth on SABHI agar containing CMT (Example 38)
Holding throughout (assay type): cell-based

In one experiment the test system is Rhizopus sp. To be noted: for Growth at 25 μg/ml compared to control at 24 hrs incubation / Growth at 25 μg/ml compared to control at 48 hours: 30° C., growth grade. As for the experimental part:
(§1) The following fungi were inoculated onto potato dextrose agar (PDA) from stock cultures and incubated aerobically at 30° C.: Aspergillus [NT] 1022, Penicillium sp. (laboratory isolate), Candida albicans, ATCC 14053, and Rhizopus sp. […] The conidia were suspended in 0.9% saline and the turbidity was adjusted to match a 0.5 MacFarland standard (equivalent to approximately 1.5×10^8 cells). Candida albicans was suspended in saline and adjusted to 0.5 MacFarland in a similar manner. These suspensions were diluted 1:100 in sterile 0.9% saline. SABHI Agar (Difco) pH 7.0 was prepared in 100 ml amounts and sterilized at 121° C. for 15 min. […] SABHI Agar plates of each CMT and SAHBI agar without CMT using dimethylsulphoxide (DMSO) as a control were inoculated with 10 μl of conidia suspension of Aspergillus fumigatus, Penicillium sp. and Rhizopus sp. and 10 μl suspension of Candida albicans prepared as described above. The plates were then incubated aerobically for 24 hour and for 48 hours at 30° C. The results are set forth in Table 1 (24 hr. incubation) and Table 2 (48 hr. incubation). [table]

In experiment [1] the test system is Aspergillus fumigatus ATCC 1022. To be noted: for Growth at 25 μg/ml compared to control at 24 hrs incubation / Growth at 25 μg/ml compared to control at 48 hours: 30° C., growth grade; for Anti-fungal activity (summary in words): 25 μg/ml agar, Example 38. As for the experimental part: as §1
Experiment [2] has as its system Penicillium sp. (laboratory isolate). To be noted: for Growth at 25 μg/ml compared to control at 24 hrs incubation / Growth at 25 μg/ml compared to control at 48 hours: 30° C., growth grade; for Anti-fungal activity (summary in words): 25 μg/ml agar, Example 38. The procedure:
as §1

The test system of experiment [3] is Candida albicans, ATCC 14053. As to conditions: for Growth at 25 μg/ml compared to control at 24 hrs incubation / Growth at 25 μg/ml compared to control at 48 hours: 30° C., growth grade; for Anti-fungal activity (summary in words): 25 μg/ml agar, Example 38. The procedure: as §1

As to `CN(C)c1cc([N+]#N)c(O)c2c1CC1CC3CC(O)=C(C(N)=O)C(=O)C3(O)C(O)=C1C2=O.O=S(=O)([O-])O` (stereo not shown) [Example 4, 4-Dedimethylamino-7-dimethylamino-6-demethyl-6-deoxy-9-diazoniumtetracycline sulfate], the “Growth at 25 μg/ml compared to control at 24 hrs incubation” value is 4 (Level of growth in the absence of anti-fungal agent (control).) in the experiment with Rhizopus sp., 0 (complete inhibition of growth.) in experiment [1], 3 (25% reduction in growth of colonies compared to control.) in experiment [2] and 1 (75% reduction in growth in colonies compared to control.) in experiment [3]. Also, the “Growth at 25 μg/ml compared to control at 48 hours” value in the experiment on Rhizopus sp. is given as 4 (Level of growth in the absence of anti-fungal agent (control).); in experiment [1] it was 1 (75% reduction in growth in colonies compared to control.); in experiment [2], 0 (complete inhibition of growth.); in experiment [3] it was 4 (Level of growth in the absence of anti-fungal agent (control).).

Take `CN(C)c1ccc2c(c1O)C(=O)C1=C(O)C3(O)C(=O)C(C(N)=O)=C(O)CC3CC1C2` (stereo not shown) [COL 306, 9-dimethylamino-6-demethyl-6-deoxy-4-dedimethylaminotetracycline]: the “Growth at 25 μg/ml compared to control at 24 hrs incubation” value with Rhizopus sp. is 4 (Level of growth in the absence of anti-fungal agent (control).); in experiment [1], 1 (75% reduction in growth in colonies compared to control.); in experiment [2], 3 (25% reduction in growth of colonies compared to control.); in experiment [3] it was 3 (25% reduction in growth of colonies compared to control.). Also, the “Growth at 25 μg/ml compared to control at 48 hours” value (in the experiment with Rhizopus sp.; in experiment [1]; in experiment [2]; in experiment [3]) was 4 (Level of growth in the absence of anti-fungal agent (control).) throughout.

As to `NC(=O)C1=C(O)CC2CC3Cc4ccc(N)c(O)c4C(=O)C3=C(O)C2(O)C1=O` (stereo not shown) [COL 308, 9-amino-6-demethyl-6-deoxy-4-dedimethylaminotetracycline], the “Growth at 25 μg/ml compared to control at 24 hrs incubation” value is listed as 4 (Level of growth in the absence of anti-fungal agent (control).) with Rhizopus sp., 0 (complete inhibition of growth.) in experiment [1], 0 (complete inhibition of growth.) in experiment [2] and 4 (Level of growth in the absence of anti-fungal agent (control).) in experiment [3]. For the same molecule, the “Growth at 25 μg/ml compared to control at 48 hours” value in the experiment with Rhizopus sp. was 4 (Level of growth in the absence of anti-fungal agent (control).); in experiment [1], 1 (75% reduction in growth in colonies compared to control.); in experiment [2], 0 (complete inhibition of growth.); in experiment [3], 4 (Level of growth in the absence of anti-fungal agent (control).). For the same molecule, the “Anti-fungal activity (summary in words)” value in experiment [1] and in experiment [2] was “demonstrated activity” in each case.

Consider `NC(=O)C1=C(O)CC2CC3Cc4ccc([N+](=O)[O-])c(O)c4C(=O)C3=C(O)C2(O)C1=O` (stereo not shown) [COL 303, 9-nitro-6-demethyl-6-deoxy-4-dedimethylaminotetracycline], for which the figures for the “Growth at 25 μg/ml compared to control at 24 hrs incubation” value (in the experiment on Rhizopus sp.; in experiment [2]; in experiment [3]) were 4 (Level of growth in the absence of anti-fungal agent (control).), 3 (25% reduction in growth of colonies compared to control.) and 3 (25% reduction in growth of colonies compared to control.), respectively. For the same molecule, the “Growth at 25 μg/ml compared to control at 48 hours” value (in the experiment with Rhizopus sp.; in experiment [1]; in experiment [2]; in experiment [3]) was 4 (Level of growth in the absence of anti-fungal agent (control).) in each case.

Take `O=C(NCN1CCNCC1)C1=C(O)CC2CC3Cc4cccc(O)c4C(=O)C3=C(O)C2(O)C1=O` (stereo not shown) [COL 315, 2-CONHCH2-piperazin-1-yl-6-demethyl-6-deoxy-4-dedimethylaminotetracycline]: the “Anti-fungal activity (summary in words)” value is reported as “activity against all the fungi tested” with Rhizopus sp. (25 μg/ml agar, Example 38); “activity against all the fungi tested” in experiment [1]; “activity against all the fungi tested” in experiment [2]; “activity against all the fungi tested” in experiment [3]. Also, the “Growth at 25 μg/ml compared to control at 24 hrs incubation” value was 1 (75% reduction in growth in colonies compared to control.) in the experiment with Rhizopus sp., 0 (complete inhibition of growth.) in experiment [1], 0 (complete inhibition of growth.) in experiment [2] and 0 (complete inhibition of growth.) in experiment [3]. Also, the “Growth at 25 μg/ml compared to control at 48 hours” value in the experiment on Rhizopus sp. is on record as 1 (75% reduction in growth in colonies compared to control.); in experiment [1], 0 (complete inhibition of growth.); in experiment [2], 0 (complete inhibition of growth.); in experiment [3], 0 (complete inhibition of growth.).

Consider `CC1(O)c2c(Cl)ccc(O)c2C(=O)C2=C(O)C3(O)C(=O)C(C(N)=O)=C(O)CC3CC21` (stereo not shown) [COL 4, 7-chloro-4-dedimethylaminotetracycline], for which the “Anti-fungal activity (summary in words)” value in experiment [1] and in experiment [2] was “demonstrated activity” throughout.

Take `NC(=O)C1=C(O)CC2CC3Cc4c([N+](=O)[O-])ccc(O)c4C(=O)C3=C(O)C2(O)C1=O` (stereo not shown) [COL 302, 7-nitro-6-demethyl-6-deoxy-4-dedimethylaminotetracycline]: the “Growth at 25 μg/ml compared to control at 24 hrs incubation” value in the experiment with Rhizopus sp. was 4 (Level of growth in the absence of anti-fungal agent (control).); in experiment [1] it was 0 (complete inhibition of growth.); in experiment [2] it was 3 (25% reduction in growth of colonies compared to control.); in experiment [3], 4 (Level of growth in the absence of anti-fungal agent (control).). The “Growth at 25 μg/ml compared to control at 48 hours” value (in the experiment with Rhizopus sp.; in experiment [1]; in experiment [2]; in experiment [3]) was 4 (Level of growth in the absence of anti-fungal agent (control).) each time.

For “4-Dedimethylamino-7-dimethylamino-6-demethyl-6-deoxy-9-ethoxythiocarbonylthio-tetracycline sulfate [Example 7]”, the “Growth at 25 μg/ml compared to control at 24 hrs incubation” value in the experiment with Rhizopus sp. is listed as 4 (Level of growth in the absence of anti-fungal agent (control).); in experiment [1], 0 (complete inhibition of growth.); in experiment [2] it was 3 (25% reduction in growth of colonies compared to control.); in experiment [3], 0 (complete inhibition of growth.). Further, the “Growth at 25 μg/ml compared to control at 48 hours” value with Rhizopus sp. is given as 3 (25% reduction in growth of colonies compared to control.); in experiment [1] it was 4 (Level of growth in the absence of anti-fungal agent (control).); in experiment [2], 4 (Level of growth in the absence of anti-fungal agent (control).); in experiment [3] it was 0 (complete inhibition of growth.).

For `CC1(O)c2cccc(O)c2C(=O)C2=C(O)C3C(=O)C(C(N)=O)=C(O)CC3CC21` (stereo not drawn) [COL 7, 4-dedimethylamino-12α-deoxytetracycline], the “Anti-fungal activity (summary in words)” value in experiment [3] is recorded as “strong activity”.
